Test: Thermal crystal transformation test (hot stage, XRPD)
Assay type: physicochemical
Conditions: for Results (crystal form after thermal crystal transformation, XRPD): heating rate 10° C./min, holding time 1 min
Description: The present invention further provides a method for preparing the polymorph of any one of Form A to Form Z, including: • (1) suspension method: adding a crude free base of the compound of formula I (which can be prepared according to the methods described in WO 2019240938 A1) to a selected single or binary solvent until a suspension is formed and stirring same under suspension at room temperature to 50° C. for a period of time (e.g., 1 h to 3 days, or 2 h to 24 h, or 2 h to 12 h, or 3 h to 5 h), and then centrifuging and separating the suspension, followed by drying, to obtain the product; or • (2) Anti-solvent crystallization method: adding a crude free base of the compound of formula I to an appropriate amount of a good solvent until completely dissolved, taking an amount of the solution and dropwise adding same to a poor solvent or dropwise adding a poor solvent to the solution, and stirring same to precipitate a solid, followed by separation and drying to obtain the product; or • (3) cooling method: adding a crude free base of the compound of formula I to an appropriate amount of a solvent at 50-80° C. until the solid is just completely dissolved, and transferring the solution to an environment at room temperature for cooling, followed by leaving to stand or crystallization under stirring, separation and drying to obtain the product; or • (4) vapor diffusion method: dropwise adding an appropriate amount of a good solvent to an amount of a crude free base of the compound of formula I at room temperature to completely dissolve the sample or formulating same as a saturated solution of a good solvent; and separately taking an amount of the solution, and leaving the clear solution to stand in a poor solvent atmosphere at room temperature until a solid precipitates out, followed by separation, to obtain the product; or • (5) thermal crystal transformation method: placing an amount of the sample on a glass plate on a hot stage, heating same to the target temperature at a rate (e.g., 5-20° C./min, or 10-15° C./min), and maintaining the temperature for a period of time (e.g., 0.5-5 min, or 1-3 min, or 1-2 min), followed by naturally cooling down to room temperature to obtain a solid.
The different crystal forms, as raw materials, were heated to the target temperature on a hot table and held for 1 min, and cooled to room temperature to obtain solids for the XRPD test.

With [2H]C([2H])([2H])[C@@H]1CCc2c(Oc3c(Cl)cc(-n4nc(C#N)c(=O)[nH]c4=O)cc3Cl)n[nH]c(=O)c21 [Form A, (R)-2-(3,5-dichloro-4-((7-(methyl-d3)-1-oxo-2,5,6,7-tetrahydro-1H-cyclopenta [d]pyridazin-4-yl)oxy)phenyl)-3,5-dioxo-2,3,4,5-tetrahydro-1,2,4-triazine-6-carbonitrile] the “crystal form after thermal crystal transformation” value (heated to 150° C.) was “Form A”, the “crystal form after thermal crystal transformation” value (heated to 300° C.) was “Form C” and the “Results (crystal form after thermal crystal transformation, XRPD)” value (“Results” below) (target temperature 150° C.) was “Form A”. The “Results” value (target temperature 300° C.) was “Form C”.
For [2H]C([2H])([2H])[C@@H]1CCc2c(Oc3c(Cl)cc(-n4nc(C#N)c(=O)[nH]c4=O)cc3Cl)n[nH]c(=O)c21 [Form E, (R)-2-(3,5-dichloro-4-((7-(methyl-d3)-1-oxo-2,5,6,7-tetrahydro-1H-cyclopenta [d]pyridazin-4-yl)oxy)phenyl)-3,5-dioxo-2,3,4,5-tetrahydro-1,2,4-triazine-6-carbonitrile], the “crystal form after thermal crystal transformation” value (by desolvation) was “Form C” and the “Results” value (target temperature 180° C.) was “Form C”.
For [2H]C([2H])([2H])[C@@H]1CCc2c(Oc3c(Cl)cc(-n4nc(C#N)c(=O)[nH]c4=O)cc3Cl)n[nH]c(=O)c21 [Form F, (R)-2-(3,5-dichloro-4-((7-(methyl-d3)-1-oxo-2,5,6,7-tetrahydro-1H-cyclopenta [d]pyridazin-4-yl)oxy)phenyl)-3,5-dioxo-2,3,4,5-tetrahydro-1,2,4-triazine-6-carbonitrile], the “crystal form after thermal crystal transformation” value (heated to 230° C. or more) was “Form C” and the “Results” value (target temperature 230° C.) was “Form C”.
For [2H]C([2H])([2H])[C@@H]1CCc2c(Oc3c(Cl)cc(-n4nc(C#N)c(=O)[nH]c4=O)cc3Cl)n[nH]c(=O)c21 [Form J, (R)-2-(3,5-dichloro-4-((7-(methyl-d3)-1-oxo-2,5,6,7-tetrahydro-1H-cyclopenta [d]pyridazin-4-yl)oxy)phenyl)-3,5-dioxo-2,3,4,5-tetrahydro-1,2,4-triazine-6-carbonitrile], the “Results” value (target temperature 160° C.) was “Form C”.
For [2H]C([2H])([2H])[C@@H]1CCc2c(Oc3c(Cl)cc(-n4nc(C#N)c(=O)[nH]c4=O)cc3Cl)n[nH]c(=O)c21 [Form K, (R)-2-(3,5-dichloro-4-((7-(methyl-d3)-1-oxo-2,5,6,7-tetrahydro-1H-cyclopenta [d]pyridazin-4-yl)oxy)phenyl)-3,5-dioxo-2,3,4,5-tetrahydro-1,2,4-triazine-6-carbonitrile], the “crystal form after thermal crystal transformation” value (heated to 260° C. or more) was “Form C”.
In the case of [2H]C([2H])([2H])[C@@H]1CCc2c(Oc3c(Cl)cc(-n4nc(C#N)c(=O)[nH]c4=O)cc3Cl)n[nH]c(=O)c21 [Form L, (R)-2-(3,5-dichloro-4-((7-(methyl-d3)-1-oxo-2,5,6,7-tetrahydro-1H-cyclopenta [d]pyridazin-4-yl)oxy)phenyl)-3,5-dioxo-2,3,4,5-tetrahydro-1,2,4-triazine-6-carbonitrile], the “crystal form after thermal crystal transformation” value (heated to 100° C.) is reported as “Form A”, the “crystal form after thermal crystal transformation” value (heated to 190° C.) is reported as “Form C” and the “Results” value (target temperature 100° C.) is reported as “Form A”. The “Results” value (target temperature 190° C.) was “Form C”.
With [2H]C([2H])([2H])[C@@H]1CCc2c(Oc3c(Cl)cc(-n4nc(C#N)c(=O)[nH]c4=O)cc3Cl)n[nH]c(=O)c21 [Form M, (R)-2-(3,5-dichloro-4-((7-(methyl-d3)-1-oxo-2,5,6,7-tetrahydro-1H-cyclopenta [d]pyridazin-4-yl)oxy)phenyl)-3,5-dioxo-2,3,4,5-tetrahydro-1,2,4-triazine-6-carbonitrile] the “Results” value (target temperature 260° C.) was “Form C”.
With [2H]C([2H])([2H])[C@@H]1CCc2c(Oc3c(Cl)cc(-n4nc(C#N)c(=O)[nH]c4=O)cc3Cl)n[nH]c(=O)c21 [Form N, (R)-2-(3,5-dichloro-4-((7-(methyl-d3)-1-oxo-2,5,6,7-tetrahydro-1H-cyclopenta [d]pyridazin-4-yl)oxy)phenyl)-3,5-dioxo-2,3,4,5-tetrahydro-1,2,4-triazine-6-carbonitrile] the “crystal form after thermal crystal transformation” value (heated to 235° C. or more) was “Form C with a slightly less crystallinity” and the “Results” value (target temperature 235° C.) was “Form C”.
For [2H]C([2H])([2H])[C@@H]1CCc2c(Oc3c(Cl)cc(-n4nc(C#N)c(=O)[nH]c4=O)cc3Cl)n[nH]c(=O)c21 [Form R, (R)-2-(3,5-dichloro-4-((7-(methyl-d3)-1-oxo-2,5,6,7-tetrahydro-1H-cyclopenta [d]pyridazin-4-yl)oxy)phenyl)-3,5-dioxo-2,3,4,5-tetrahydro-1,2,4-triazine-6-carbonitrile], the “Results” value (target temperature 200° C.) was “Form C”.
In the case of [2H]C([2H])([2H])[C@@H]1CCc2c(Oc3c(Cl)cc(-n4nc(C#N)c(=O)[nH]c4=O)cc3Cl)n[nH]c(=O)c21 [Form V, (R)-2-(3,5-dichloro-4-((7-(methyl-d3)-1-oxo-2,5,6,7-tetrahydro-1H-cyclopenta [d]pyridazin-4-yl)oxy)phenyl)-3,5-dioxo-2,3,4,5-tetrahydro-1,2,4-triazine-6-carbonitrile], the “crystal form after thermal crystal transformation” value (heated to 150° C.) is reported as “Form V”.

— patent US20250179050A1, “POLYMORPH AS THYROID HORMONE RECEPTOR AGONISTS AND USE THEREOF” (XIZANG HAISCO PHARMACEUTICAL CO., LTD., priority 2022, published 2025)
